Experimental data: US6572865B1, “Mycobacterium tuberculosis DNA sequences encoding immunostimulatory peptides and methods for using same” (priority 1995, dated 2003)
Where two headings read alike, the source gives them in different places.

B1: AciI#2-874: AP-fusion clone; SEQ ID NO: 73; MTCY190.20 (protein)
chain: VMPSSIGLVVGSMLWRQINRLFGVRGLCWAAHCSTPLCAAVHGGRVVWAVGSRLGVLHGVPAGYGGRSNGGRRIDIVDQRPRAR
notes: AP-fusion clone; MTCY190.20
B2: AciI#3-243: AP-fusion clone; SEQ ID NO: 112; MTCY50.02 (protein)
chain: AGGCGACGGTTGGCACCACCACGAGTGAGTCAGGCAGGAGCCCCGCCACGTTGCGGACGGCGCGAATCTTCGCCTGTGGCTCACCGACTTTCCGCCCAACTTCAACGATCTTGCACATGGACGGCAAGAACGCCGAGGTCGCG
notes: AP-fusion clone; MTCY50.02

Assays:
[1] = system: T-cells from tuberculin-positive people; assay type: cell-based, human
immune T-cells = assay type: cell-based, mice; conditions: Table 2; background subtracted; up to ten μg fusion peptide
[2] = 5×10^5 mononuclear cells, up to 1 μg/mL peptide or up to 50 ng/mL PhoA fusion protein
[3] = up to 1 μg/mL peptide or up to 50 ng/mL PhoA fusion protein, background 103.3

Molecule	Concentration of INF-γ [1, 2] [pg/mL]	Concentration of INF-γ minus background [1, 3] [pg/mL]	Concentration of INF-γ ([1]; control at 10 μg/mL) [pg/mL]	Concentration of INF-γ minus background ([1]; control at 10 μg/mL) [pg/mL]	INF: pg/mL of INF-γ produced using fusion to stimulate immune T-cells (immune T-cells)
EYSRFVGDVFGAPLAME [CD-2/1/96/10, synthetic peptide from AciI#2-827]	134.0	30.7	–	–	–
GKTYDAYFTDAGGITPG [HPI1-3/2, synthetic peptide from HinP#1-3]	136.3	23.0	–	–	–
GRAELSSIVVLLTNNTA [CD-2/1/96/14, synthetic peptide from AciI#2-827]	310.2	206.9	–	–	–
PhoA control: PhoA protein employed as a negative control [reference compound]	–	–	26.7	0	–
SRFVGDVFGAPLAMESL [CD-2/1/96/11, synthetic peptide from AciI#2-827]	141.6	38.3	–	–	–
VTDNPAWYRLTKFFGKL [CD-2/1/96/1, synthetic peptide from AciI#2-827]	256.6	153.3	–	–	–
WSEYSRFVGDVFGAPLA [CD-2/1/96/9, synthetic peptide from AciI#2-827]	187.6	84.3	–	–	–
YDAYFTDAGGITPGNSV [HPI1-3/3, synthetic peptide from HinP#1-3]	264.2	160.9	–	–	–
B1	–	–	–	–	2,171 pg/mL
B2	–	–	–	–	2,857 pg/mL
